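Exposure lasted 48 hours, with cells grown in 96-well plates and compounds tested at five concentrations. Here, GI50 denotes the concentration required for 50% inhibition of growth.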 The source made the active and inactive calls. Cut-off read from the data, not from the text of the source: active = GI50 up to about 1.1 µM and inactive = higher.
Legend:
Experiment in all cases: inhibition of tumour cell growth, NCI panel, 48 h
[1] = system: SW-620
[2] = system: HOP-92
[3] = system: HCT-116
[4] = system: NCI-H226
[5] = system: RPMI-8226
[6] = system: U-251
[7] = system: A498
[8] = system: K562
[9] = system: ACHN
[10] = system: CCRF-CEM
[11] = system: TK-10
[12] = system: MDA-N
[13] = system: 786-0
[14] = system: EKVX
[15] = system: IGROV-1
[16] = system: UO-31
[17] = system: COLO 205
[18] = system: Hs-578T
[19] = system: HT-29
[20] = system: BT-549
[21] = system: OVCAR-5
[22] = system: Malme-3M
[23] = system: RXF 393
[24] = system: NCI/ADR-RES
[25] = system: MDA-MB-435
[26] = system: MOLT-4
[27] = system: M14
[28] = system: UACC-62
[29] = system: SK-MEL-5
[30] = system: SNB-75
[31] = system: SK-MEL-28
[32] = system: SF-268
[33] = system: OVCAR-3
[34] = system: OVCAR-8
[35] = system: T47D
[36] = system: NCI-H522
[37] = system: HOP-62
[38] = system: SK-OV-3
[39] = system: MDA-MB-231
[40] = system: UACC-257
[41] = system: LOX IMVI
[42] = system: DU-145
[43] = system: NCI-H23
[44] = system: CAKI-1
[45] = system: SK-MEL-2
[46] = system: A549
[47] = system: OVCAR-4
[48] = system: SNB-19
[49] = system: HCT-15
[50] = system: PC-3
[51] = system: SF-295
[52] = system: KM12
[53] = system: SN12C
[54] = system: NCI-H460
[55] = system: HCC 2998
[56] = system: SF-539
[57] = system: MCF7
[58] = system: HL-60

Measured: GI50

Cc1ccccc1/N=N/c1cc(C)c(/N=N/c2c(O)ccc3ccccc23)cc1C
> 100 µM: [49]
inactive: [1] > 100 µM | [2] > 100 µM | [3] > 100 µM | [4] > 100 µM | [5] > 100 µM | [6] 99.3 µM | [7] > 100 µM | [8] > 100 µM | [9] > 100 µM | [10] > 100 µM | [11] > 100 µM | [12] > 100 µM | [13] > 100 µM | [14] > 100 µM | [15] > 100 µM | [16] > 100 µM | [17] > 100 µM | [18] 55.8 µM | [19] > 100 µM | [20] > 100 µM | [21] > 100 µM | [22] > 100 µM | [23] > 100 µM | [24] > 100 µM | [25] > 100 µM | [26] > 100 µM | [27] > 100 µM | [28] > 100 µM | [29] > 100 µM | [30] 73.1 µM | [31] > 100 µM | [32] > 100 µM | [33] > 100 µM | [34] > 100 µM | [35] > 100 µM | [36] > 100 µM | [37] > 100 µM | [38] > 100 µM | [39] > 100 µM | [40] > 100 µM | [41] > 100 µM | [42] > 100 µM | [43] > 100 µM | [44] > 100 µM | [45] > 100 µM | [46] > 100 µM | [47] > 100 µM | [48] > 100 µM | [50] > 100 µM | [51] > 100 µM | [52] > 100 µM | [53] > 100 µM

COc1ccc(/C=C/c2cc(OC)c(OC)c(OC)c2)cc1O[Si](C)(C)C(C)(C)C
active: [5] 0.0494 µM
inactive: [54] 4.15 µM | [1] 2.91 µM | [2] 15.6 µM | [3] 2.77 µM | [4] 5.19 µM | [6] 3.11 µM | [7] 12.7 µM | [9] 7.87 µM | [11] 27.1 µM | [12] 2.27 µM | [13] 10.4 µM | [14] 5.81 µM | [15] 8.95 µM | [16] 7.31 µM | [17] 15.7 µM | [18] 3.15 µM | [55] 43.5 µM | [19] 37.9 µM | [20] 12.1 µM | [21] 33.5 µM | [23] 3.09 µM | [25] 2.26 µM | [26] 4.22 µM | [27] 5.97 µM | [28] 3.35 µM | [29] 1.98 µM | [30] 2.03 µM | [31] 25.1 µM | [32] 15.8 µM | [56] 2.32 µM | [34] 2.74 µM | [35] 18.7 µM | [57] 3.6 µM | [36] 1.87 µM | [37] 5.93 µM | [38] 52.7 µM | [39] 5.02 µM | [40] 10.4 µM | [42] 7.11 µM | [43] 5.62 µM | [44] 41.9 µM | [45] 7.8 µM | [46] 14 µM | [47] 19 µM | [48] 3.44 µM | [50] 4.72 µM | [51] 26 µM | [53] 7.16 µM
3.33 µM: [49]

CCOC(=O)c1[nH]c2nc(SC)nc(Nc3ccccc3Cl)c2c1N
inactive: [54] 11.6 µM | [1] 27.2 µM | [3] 15.6 µM | [4] 15.3 µM | [5] 15.2 µM | [6] 13.9 µM | [7] 12.6 µM | [8] 13.9 µM | [9] 18.3 µM | [10] 15.3 µM | [11] 22.5 µM | [12] 30.5 µM | [13] 20.2 µM | [15] 26.9 µM | [16] 15.7 µM | [17] 28.9 µM | [18] 20.1 µM | [55] 27.4 µM | [19] 11.7 µM | [20] 20 µM | [21] 19.6 µM | [22] 24.3 µM | [23] 12.4 µM | [24] 18.8 µM | [25] 31.6 µM | [26] 8.55 µM | [27] 37.8 µM | [28] 16.6 µM | [29] 6.21 µM | [30] 16.2 µM | [31] 31.3 µM | [32] 19.8 µM | [33] 20.7 µM | [34] 16 µM | [35] 13.1 µM | [36] 16.8 µM | [37] 18.3 µM | [38] 21.4 µM | [39] 16.6 µM | [40] 33.6 µM | [41] 11.8 µM | [42] 23.2 µM | [43] 19.2 µM | [44] 25.5 µM | [45] 29 µM | [46] 13.2 µM | [47] 14.6 µM | [48] 17.5 µM | [50] 15.7 µM | [51] 21 µM | [52] 31.3 µM | [53] 36.2 µM
35.3 µM: [49]

C=CCCC1CCCNC1=S (stereo not given)
> 100 µM: [49]
inactive: [54] > 100 µM | [1] > 100 µM | [2] > 100 µM | [3] > 100 µM | [4] > 100 µM | [5] > 100 µM | [6] > 100 µM | [7] > 100 µM | [8] > 100 µM | [9] > 100 µM | [11] > 100 µM | [12] > 100 µM | [13] > 100 µM | [14] > 100 µM | [15] > 100 µM | [16] > 100 µM | [17] > 100 µM | [18] > 100 µM | [55] > 100 µM | [19] > 100 µM | [20] > 100 µM | [21] > 100 µM | [23] > 100 µM | [25] > 100 µM | [27] > 100 µM | [28] > 100 µM | [29] > 100 µM | [30] > 100 µM | [31] > 100 µM | [32] > 100 µM | [56] > 100 µM | [34] > 100 µM | [35] > 100 µM | [57] > 100 µM | [36] > 100 µM | [37] > 100 µM | [38] > 100 µM | [39] > 100 µM | [40] > 100 µM | [42] > 100 µM | [43] > 100 µM | [44] > 100 µM | [45] > 100 µM | [46] > 100 µM | [47] > 100 µM | [48] > 100 µM | [50] > 100 µM | [51] > 100 µM | [53] > 100 µM

Cc1ccc(S(=O)(=O)N2CCCN(S(=O)(=O)c3ccc(C)cc3)CCN(S(=O)(=O)c3ccc(C)cc3)CCCSCC2)cc1
inactive: [54] > 100 µM | [1] > 100 µM | [2] > 100 µM | [3] > 100 µM | [4] > 100 µM | [5] > 100 µM | [6] 76.7 µM | [7] > 100 µM | [8] > 100 µM | [9] > 100 µM | [10] > 100 µM | [12] > 100 µM | [13] 45.2 µM | [14] > 100 µM | [15] > 100 µM | [16] > 100 µM | [17] > 100 µM | [18] > 100 µM | [55] > 100 µM | [19] > 100 µM | [20] > 100 µM | [21] > 100 µM | [23] > 100 µM | [24] > 100 µM | [25] > 100 µM | [26] > 100 µM | [27] > 100 µM | [58] > 100 µM | [28] > 100 µM | [29] > 100 µM | [30] > 100 µM | [31] > 100 µM | [32] > 100 µM | [33] > 100 µM | [56] > 100 µM | [34] > 100 µM | [35] > 100 µM | [57] > 100 µM | [37] 54.5 µM | [38] > 100 µM | [39] 59.3 µM | [42] > 100 µM | [43] > 100 µM | [45] > 100 µM | [46] > 100 µM | [47] > 100 µM | [48] > 100 µM | [51] 89.7 µM | [53] > 100 µM

— ChEMBL document CHEMBL1201862, “PubChem BioAssay data set” (2004)
